According to patent US9833433B1, “Compositions, methods of use, and methods of treatment” (priority 2013, dated 2017):

Assays:
PSD-95 = assay: Hippocampal PSD-95 expression (immunoblot); assay type: in vivo, mice; conditions: Δ^9-THC for 7 days
Experimental: Western blot assay was conducted using specific antibodies (Table S1) to determine expressions of COX-2, glutamate receptor subunits, PSD-95, G-protein subunits, phosphoproteins, BACE1 and neprilysin in hippocampal tissue and/or in cultured cells as described previously (Chen et al., 2012). Surface biotinylation assays were performed to determine surface expression of glutamate receptor subunits in hippocampal slices as described previously (Fan et al., 2010).

COX-1 = assay: Hippocampal COX-1 expression in mice (immunoblot); assay type: in vivo; conditions: Δ^9-THC 10 mg/kg, detected 4 hrs after injection

## CCCCCc1cc(O)c2c(c1)OC(C)(C)[C@@H]1CCC(C)=C[C@@H]21 [Δ^9-THC, Δ^9-tetrahydrocannabinol]
PSD-95
  PSD-95 expression: reduced expression of PSD-95
COX-1
  hippocampal COX-1 expression: unaffected
